# Reference: patent US12589158B2 (priority 2022, dated 2026)
# Where two headings read alike, the source gives them in different places.
# Assays:
# [1] = Pharmacokinetics following single administration in SD rat; set-up: species or system SD rats; details: in vivo, sc, 50 nmol/kg
# Protocol: The compound is administrated to male SD rats (230-268 g, n=3) at a dose of 50.0 nmol/kg (s.c.) or 25.0 nmol/kg (i.v.). […] 30.0 μL of thawed plasma sample is taken. 150 μL of acetonitrile solution (containing 5 ng mL^−1 Verapamil, 50 ng·mL^−1 Glibenclamide, 200 ng·mL^−1 Tolbutamide and 200 ng·mL^−1 Diclofenac) are added to precipitate protein. The mixture is vortexed for 5 minutes, and centrifuged at 3700 rpm for 8 minutes. 70.0 μL of the supernatant is taken, into which 70.0 μL of 0.5% aqueous formic acid solution is added. The mixture is vortexed for 5 minutes. 15 μL of the mixture solution is sampled and injected into the LC-MS/MS to determine the drug concentration in plasma. 20.0 μL of thawed plasma sample is taken. 60 μL of acetonitrile solution (containing 5 ng mL^−1 Verapamil, 50 ng·mL^−1 Glibenclamide, 200 ng·mL^−1 Tolbutamide and 200 ng·mL^−1 Diclofenac) are added to precipitate protein. […] The mixture is vortexed for 10 minutes. 10.0 μL of the mixture solution is sampled and injected into the LC-MS/MS to determine the drug concentration in plasma. 30.0 μL of thawed plasma sample is taken. 150 μL of acetonitrile solution (containing 5 ng mL^−1 Verapamil, 50 ng mL^−1 Glibenclamide, 200 ng·mL^−1 Tolbutamide and 200 ng·mL^−1 Diclofenac) are added to precipitate protein. The mixture is vortexed for 5 minutes, and centrifuged at 3700 rpm for 8 minutes. 70.0 μL of the supernatant is taken, into which 70.0 μL of 0.5% aqueous formic acid solution is added. The mixture is vortexed for 5 minutes. 10.0 μL of the mixture solution is sampled and injected into the LC-MS/MS to determine the drug concentration in plasma.
# [2] = Pharmacokinetics in cynomolgus monkeys; details: cynomolgus monkey, in vivo
# Protocol: After subcutaneous or intravenous administration to cynomolgus monkeys, plasma is collected and the drug concentration in plasma is determined to illustrate the in vivo pharmacokinetic properties of the compound according to the present invention. The compound is dissolved in 1.4% PG in 8 mM Na2HPO4 Buffer (pH 7.39), and filtered through a filter membrane (PTFE, 0.45 μm) to obtain 25 and 12.5 nmol/mL solution of the compound respectively. The obtained solutions are administered to cynomolgus monkeys (4-8 kg) at a dose of 25 nmol/kg subcutaneously (s.c.) or 12.5 nmol/kg intravenously (i.v.). […] The blood samples are centrifuged at 2200 g for 10 minutes to obtain a plasma, which is stored at −90° C. to −60° C. for further analysis and assay.
# 70.0 μL of thawed plasma sample is taken. 70 μL of acetonitrile (containing 1 ng/ml of the internal standard) is added to precipitate protein. The mixture is vortexed for 1 minute, and centrifuged at 14000 rpm for 10 minutes. 60.0 μL of the supernatant is taken, into which 60.0 μL of 0.5% aqueous formic acid solution is added. The mixture is vortexed for 5 minutes. 10 μL of the mixture solution is sampled and injected into the LC-MS/MS to determine the drug concentration in plasma.
# Based on the drug concentration in plasma of the compounds in the cynomolgus monkeys, the pharmacokinetic parameters are calculated by applying the software Winnolin 8.2 in a non-compartmental model, and the results are shown in Table 9 and Table 10 below.
# [3] = in vivo
# [4] = type: in vivo; details: rat, in vivo, male SD rats
# Protocol: (§1) 77 SD male rats (SPF grade) are selected and randomly divided into 10 groups based on body weight. Group 1 is the vehicle control group, including 5 animals. […] Group 5 to Group 7 are the groups administrated with the test substance 1; and Group 8 to Group 10 are the groups administrated with the test substance 2, each group including 8 animals, wherein 5 animals for primary test, and 3 animals for toxicokinetics test, and the administration dose is 1, 3 and 10 mg/kg respectively. Each of the above groups is continuously administered twice a week for 2 weeks (administrating at Day 1, Day 5, Day 8, Day 12 and Day 15).
# (§2) During the experiment, the cage condition monitoring, detailed clinical observations, determination of the food consumption, determination of body weight, measurement of the blood biochemical and hematology indicator, investigation of the gross anatomy, weighing of the organ, studying on toxicokinetic are performed on all the groups of the animals.
# (§3) Original data during each time period is tabulated. The average values and standard deviations and/or group change are calculated for each assay endpoint based on the group and sex. For each endpoint, the administrated group will be compared with the control group in the following aspect. A logarithmic conversion is performed to the endpoint data as desired prior to the start of the specific analyses.
# SD male rats = type: in vivo; details: for Toxicokinetic: Cmax and AUC versus dose: male SD rats, 1, 3, 10 mg/kg; for Toxicokinetic: accumulation: male SD rats, continuously administered twice a week for 2 weeks; for Safety Window (based on dosage): rat MTD for 2 weeks vs efficacy dose in db/db mice; for Safety Window (based on exposure AUClast) / dose at which decrease of the body weight is observed after the first administration: rat, in vivo
# Protocol: as §1, §2, §3
# [5] = Pharmacokinetics in C57 mice; details: in vivo
# Protocol: After subcutaneous or intravenous administration to C57 mice, plasma is collected and the drug concentration in plasma is determined to illustrate the in vivo pharmacokinetic properties of the compound according to the present invention. […] 20.0 μL of thawed plasma sample is taken. 20 μL of 50% aqueous methanol solution (containing 100 ng mL^−1 internal standard) and 60 μL of acetonitrile are added sequentially to precipitate protein. The mixture is vortexed for 5 minutes, and centrifuged at 3700 rpm for 8 minutes. 50.0 μL of the supernatant is taken, into which 50.0 μL of 0.5% aqueous formic acid solution is added. The mixture is vortexed for 5 minutes. 50 μL of the mixture solution is sampled and injected into the LC-MS/MS to determine the drug concentration in plasma.
# [6] = continuously administered twice a week for 2 weeks
structure (smiles),measurement,setting,value
CC[C@H](C)[C@H](NC(=O)[C@H](CC(C)C)NC(=O)[C@H](Cc1c[nH]c2ccccc12)NC(=O)[C@H](CCC(N)=O)NC(=O)[C@@H](NC(=O)[C@H](Cc1ccccc1)NC(=O)[C@H](C)NC(=O)[C@H](CCCCNC(=O)COCCOCCNC(=O)COCCOCCNC(=O)CC[C@H](NC(=O)CCCCCCCCCCCCCCCCCCC(=O)O)C(=O)O)NC(=O)[C@H](CCC(N)=O)NC(=O)[C@H](C)NC(=O)[C@@H](NC(=O)[C@H](CCCCN)NC(=O)[C@H](CC(=O)O)NC(=O)[C@H](CC(C)C)NC(=O)C(C)(C)NC(=O)[C@@H](NC(=O)[C@H](CO)NC(=O)[C@H](Cc1ccc(O)cc1)NC(=O)[C@H](CC(=O)O)NC(=O)[C@H](CO)NC(=O)[C@@H](NC(=O)[C@H](Cc1ccccc1)NC(=O)[C@@H](NC(=O)CNC(=O)[C@H](CCC(=O)O)NC(=O)C(C)(C)NC(=O)[C@@H](N)Cc1ccc(O)cc1)[C@@H](C)O)[C@@H](C)O)[C@@H](C)CC)[C@@H](C)CC)C(C)C)C(=O)N[C@@H](C)C(=O)NCC(=O)NCC(=O)N1CCC[C@H]1C(=O)N[C@@H](CO)C(=O)N[C@@H](CO)C(=O)NCC(=O)N[C@@H](C)C(=O)N1CCC[C@H]1C(=O)N1CCC[C@H]1C(=O)N1CCC[C@H]1C(=O)N[C@@H](CO)C(N)=O [Tirzepatide],AUC(0-inf),"[1]; male, SD",3.67 ± 1.19 µM·h
same,AUC(0-t),"[1]; male, SD",3.61 ± 1.2 µM·h
same,Cmax,"[1]; male, SD",128 ± 42.8 nM
same,MRT inf,"[1]; male, SD",20.3 ± 0.755 h
same,MRT last,"[1]; male, SD",19 ± 0.265 h
same,Tmax,"[1]; male, SD",7.33 ± 1.15 h
same,half-life,"[1]; male, SD",11.4 ± 1.79 h
same,AUC(0-inf),"[2]; iv, 12.5 nmol/kg",58500 ± 11900 ng·h/mL
same,AUC(0-t),"[2]; iv, 12.5 nmol/kg",57600 ± 11800 ng·h/mL
same,C0,"[2]; iv, 12.5 nmol/kg",1170 ± 160 ng/mL
same,MRT inf,"[2]; iv, 12.5 nmol/kg",74.3 ± 8.76 h
same,MRT last,"[2]; iv, 12.5 nmol/kg",68.3 ± 8.61 h
same,half-life,"[2]; iv, 12.5 nmol/kg",59.5 ± 5.22 h
same,AUC(0-inf),"[2]; sc, 25 nmol/kg",150000 ± 39100 ng·h/mL
same,AUC(0-t),"[2]; sc, 25 nmol/kg",148000 ± 38200 ng·h/mL
same,Cmax,"[2]; sc, 25 nmol/kg",1300 ± 300 ng/mL
same,MRT inf,"[2]; sc, 25 nmol/kg",105 ± 7.58 h
same,MRT last,"[2]; sc, 25 nmol/kg",99.6 ± 6.26 h
same,Tmax,"[2]; sc, 25 nmol/kg",22.7 ± 10.1 h
same,half-life,"[2]; sc, 25 nmol/kg",62.5 ± 6.07 h
same,heart rate recovery time,[3],> 120 h
same,MTD,"[4]; MTD for 2 weeks, twice a week",2.08 µmol/kg
same,MTD,[4]; [6],> 10 mg/kg
same,Toxicokinetic: Cmax and AUC versus dose,SD male rats,increase nearly proportionally to the dose
same,Toxicokinetic: accumulation,SD male rats,no substantial accumulation
same,Safety Window (based on dosage),SD male rats,416
same,Safety Window (based on exposure AUClast),SD male rats,130
same,dose at which decrease of the body weight is observed after the first administration,SD male rats,≥ 3 mg/kg
same,AUC(0-inf),"[5]; C57, mouse, iv",12800 ng·h/mL
same,AUC(0-t),"[5]; C57, mouse, iv",12700 ng·h/mL
same,C0,"[5]; C57, mouse, iv",1900 ng/mL
same,MRT inf,"[5]; C57, mouse, iv",12 h
same,MRT last,"[5]; C57, mouse, iv",11.4 h
same,half-life,"[5]; C57, mouse, iv",10.5 h
same,AUC(0-inf),"[5]; C57, mouse, sc",19700 ng·h/mL
same,AUC(0-t),"[5]; C57, mouse, sc",19400 ng·h/mL
same,Cmax,"[5]; C57, mouse, sc",871 ng/mL
same,MRT inf,"[5]; C57, mouse, sc",15.3 h
same,MRT last,"[5]; C57, mouse, sc",14.5 h
same,Tmax,"[5]; C57, mouse, sc",6 h
same,half-life,"[5]; C57, mouse, sc",9.21 h
CC[C@H](C)[C@H](NC(=O)C(C)(C)NC(=O)[C@H](Cc1ccc(O)cc1)NC(=O)[C@H](CC(=O)O)NC(=O)[C@H](CO)NC(=O)[C@@H](NC(=O)C(C)(Cc1ccccc1)NC(=O)[C@@H](NC(=O)CNC(=O)[C@H](CCC(=O)O)NC(=O)C(C)(C)NC(=O)[C@@H](N)Cc1ccc(O)cc1)[C@@H](C)O)[C@@H](C)O)C(=O)NC(C)(C)C(=O)N[C@@H](CC(C)C)C(=O)N[C@@H](CC(=O)O)C(=O)N[C@@H](CCCCN)C(=O)N[C@@H](CCC(N)=O)C(=O)N[C@@H](C)C(=O)N[C@@H](CCC(N)=O)C(=O)N[C@@H](C)C(=O)N[C@@H](CCC(=O)O)C(=O)N[C@@H](Cc1ccccc1)C(=O)N[C@H](C(=O)N[C@@H](CCCCNC(=O)COCCOCCNC(=O)COCCOCCNC(=O)CC[C@H](NC(=O)CCCCCCCCCCCCCCCCCCCCC(=O)O)C(=O)O)C(=O)N[C@@H](Cc1c[nH]c2ccccc12)C(=O)N[C@@H](CC(C)C)C(=O)N[C@@H](CC(C)C)C(=O)N[C@@H](CCCCN)C(=O)NCC(=O)NCC(=O)N1CCC[C@H]1C(=O)N[C@@H](CO)C(=O)N[C@@H](CO)C(=O)NCC(=O)N[C@@H](C)C(=O)N1CCC[C@H]1C(=O)N1CCC[C@H]1C(=O)N1CCC[C@H]1C(=O)N[C@@H](CO)C(=O)N[C@@H](CCCCN)C(N)=O)C(C)C (some centres unmarked) [P014],MRT inf,[1],30 ± 1.01 h
same,MRT last,[1],26.2 ± 0.781 h
same,MRT inf,"[2]; sc, 25 nmol/kg",77.4 ± 13.5 h
same,MRT last,"[2]; sc, 25 nmol/kg",74.2 ± 13.8 h
same,MTD,"[4]; MTD for 2 weeks, twice a week",1.98 µmol/kg
same,MTD,[4]; [6],> 10 mg/kg
same,Toxicokinetic: Cmax and AUC versus dose,SD male rats,increase nearly proportionally to the dose
same,Toxicokinetic: accumulation,SD male rats,no substantial accumulation
same,Safety Window (based on dosage),SD male rats,1319
same,Safety Window (based on exposure AUClast),SD male rats,596
same,dose at which decrease of the body weight is observed after the first administration,SD male rats,≥ 1 mg/kg
same,MRT inf,"[5]; mouse, iv",19.2 h
same,MRT last,"[5]; mouse, iv",15.7 h
same,MRT inf,"[5]; mouse, sc",30.3 h
same,MRT last,"[5]; mouse, sc",22.9 h
